The values below come from article PMC11207335, “In Vitro Metabolism and Transport Characteristics of Zastaprazan” (Pharmaceutics, 2024).

Each structure is given as a SMILES string. Where two headings read alike, the source gives them in different places.

On the set-up of data set [1]: method as in PMID 29863280, doi:10.1007/s11938-020-00330-x. Conditions: no signs of hepatotoxicity; cited from earlier work.
For data set [2], the system named is CYP3A4. Details: method as in PMID 34072547. Conditions: cited from earlier work.
Another data set deals with erosive esophagitis. Details: method as in PMID 36504556. Conditions: 8-week treatment, patients with erosive esophagitis; cited from earlier work.
In data set [3] the target is T1, human cDNA-expressed CYP2C19 (Homo sapiens, UniProt P33261).
T1 construct: purchased Corning Life Sciences
T1 sequence (P33261 whole entry): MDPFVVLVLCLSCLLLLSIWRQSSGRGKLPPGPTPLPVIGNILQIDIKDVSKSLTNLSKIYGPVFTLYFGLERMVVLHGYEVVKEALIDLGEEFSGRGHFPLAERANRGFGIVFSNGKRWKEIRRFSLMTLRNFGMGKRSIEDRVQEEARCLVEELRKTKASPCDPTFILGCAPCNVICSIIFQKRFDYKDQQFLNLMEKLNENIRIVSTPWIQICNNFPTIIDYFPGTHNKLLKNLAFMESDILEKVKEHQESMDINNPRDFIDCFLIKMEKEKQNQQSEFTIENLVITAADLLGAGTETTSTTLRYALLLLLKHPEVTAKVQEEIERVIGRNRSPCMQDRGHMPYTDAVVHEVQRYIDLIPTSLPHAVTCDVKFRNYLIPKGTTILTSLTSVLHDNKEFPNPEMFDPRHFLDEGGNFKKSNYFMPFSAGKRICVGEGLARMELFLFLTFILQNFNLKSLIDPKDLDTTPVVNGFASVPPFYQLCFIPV
Description: Enzyme kinetics of JP-1366 metabolism in cDNA-expressed CYP2C19. It counts as in vitro ADME. Here is the method: (§1) The reaction was initiated by adding 5 μL of NADPH-generating system in triplicate, and the mixture was further incubated for 30 min at 37 °C in a shaking water bath.
(§2) The concentrations of the metabolites were quantitated, and their formation rates (pmol/mg protein/min) were calculated by dividing the amounts of metabolites formed from the incubation with human liver microsomes and human cDNA-expressed CYP or UGT enzymes by the incubation time.

In data set [4] the target is T2, human cDNA-expressed CYP3A5 (Homo sapiens, UniProt P20815).
T2 construct: purchased Corning Life Sciences
T2 sequence (P20815 whole entry): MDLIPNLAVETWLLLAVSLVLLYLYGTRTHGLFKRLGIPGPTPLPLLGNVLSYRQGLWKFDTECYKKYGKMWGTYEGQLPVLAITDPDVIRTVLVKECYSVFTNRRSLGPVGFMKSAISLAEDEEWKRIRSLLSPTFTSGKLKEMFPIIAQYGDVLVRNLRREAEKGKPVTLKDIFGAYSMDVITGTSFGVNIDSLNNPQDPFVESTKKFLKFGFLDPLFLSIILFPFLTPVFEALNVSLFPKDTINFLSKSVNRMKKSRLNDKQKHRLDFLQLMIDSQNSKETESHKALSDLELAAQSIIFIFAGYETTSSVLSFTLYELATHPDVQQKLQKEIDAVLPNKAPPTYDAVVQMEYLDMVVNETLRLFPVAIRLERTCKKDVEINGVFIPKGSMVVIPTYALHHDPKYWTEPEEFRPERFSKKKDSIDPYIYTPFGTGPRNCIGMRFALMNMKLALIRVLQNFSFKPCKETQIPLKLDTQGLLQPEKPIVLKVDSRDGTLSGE
Description: Enzyme kinetics of JP-1366 metabolism in cDNA-expressed CYP3A5. Type of data set: in vitro ADME. As to the method: as §1, §2

For data set [5], the target named is T3, human cDNA-expressed CYP2D6 (Homo sapiens, UniProt P10635).
T3 construct: purchased Corning Life Sciences
T3 sequence (P10635 whole entry): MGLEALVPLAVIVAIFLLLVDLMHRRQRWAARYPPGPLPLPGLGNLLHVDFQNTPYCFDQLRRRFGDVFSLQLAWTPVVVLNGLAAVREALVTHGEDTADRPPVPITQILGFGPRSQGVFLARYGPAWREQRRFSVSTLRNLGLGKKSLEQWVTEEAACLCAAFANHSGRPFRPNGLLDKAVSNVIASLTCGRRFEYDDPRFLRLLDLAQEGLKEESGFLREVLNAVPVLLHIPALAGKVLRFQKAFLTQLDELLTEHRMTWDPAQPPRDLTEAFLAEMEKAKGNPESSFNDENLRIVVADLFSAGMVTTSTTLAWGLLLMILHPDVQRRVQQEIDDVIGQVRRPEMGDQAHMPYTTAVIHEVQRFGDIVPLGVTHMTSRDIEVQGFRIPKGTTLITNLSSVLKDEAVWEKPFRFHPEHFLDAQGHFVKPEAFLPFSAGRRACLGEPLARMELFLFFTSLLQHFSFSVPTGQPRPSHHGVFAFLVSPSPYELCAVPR
In words: Enzyme kinetics of JP-1366 metabolism in cDNA-expressed CYP2D6. Type of data set: in vitro ADME. As to the method: as §1, §2

The next data set relates to CYP3A4/5. Description: Combined contribution of CYP3A4/5 to formation of major JP-1366 metabolites. Conditions: sum of CYP3A4 and CYP3A5 contributions. It counts as in vitro ADME, human. As to the method:
as §1, §2

Data set [6] addresses T4, human cDNA-expressed CYP3A4 (Homo sapiens, UniProt P08684).
T4 construct: purchased Corning Life Sciences
Description: Enzyme kinetics of JP-1366 metabolism in cDNA-expressed CYP3A4. It counts as in vitro ADME. Here is the method: as §1, §2

Data set [7] concerns the target T5, human cDNA-expressed CYP2C9 (Homo sapiens, UniProt P11712).
T5 construct: purchased Corning Life Sciences
In words: Enzyme kinetics of JP-1366 metabolism in cDNA-expressed CYP2C9. It counts as in vitro ADME. As to the method:
as §1, §2

In data set [8] the test system is human, dog, monkey, mouse, and rat hepatocytes. Description: In vitro metabolic profiling of JP-1366 in hepatocytes. It counts as in vitro ADME. Conditions: 10 µM JP-1366, 60 min; H human, D dog, Mk monkey, M mouse, R rat. Here is the method:
Cryopreserved human, dog, monkey, mouse, and rat hepatocytes were purified and recovered according to the manufacturer’s protocol. […] The metabolic reaction in each sample well was quenched by adding 120 μL of ice-cold acetonitrile.
MS spectra were obtained in positive-ion mode using electrospray ionization under optimized conditions as follows: capillary temperature, 350 °C; sheath gas flow rate, 40 (arbitrary units); aux gas flow rate, 10 (arbitrary units); and aux gas heater temperature, 350 °C. Full MS scan with data-dependent MS/MS was performed from m/z 100 to m/z 1000.

The subject of data set [9] is human liver microsomes (HLM). In words: Enzyme kinetics of JP-1366 metabolism in human liver microsomes. Conditions: for Vmax: formation of the labelled metabolite from JP-1366, HLM. It counts as in vitro ADME. Here is the method: as §1, §2
A general note: Microsomes from liver hold many membrane-bound enzymes, among them those of drug oxidation.

Data set [10] has as its target T6, human cDNA-expressed UGT2B17 (Homo sapiens, UniProt O75795).
T6 construct: purchased Corning Life Sciences
Description: Enzyme kinetics of M1 glucuronidation to M15 in cDNA-expressed UGT2B17. Type of data set: in vitro ADME. Conditions: formation of M15 from M1, UGT2B17. As to the method: (§3) By adding 5 μL of UDPGA (final concentration, 5 mM), the reaction was initiated, and the mixture was further incubated for 30 min at 37 °C in a shaking water bath. The reaction was terminated by adding 100 μL of ice-cold acetonitrile containing 5 ng/mL of lansoprazole (IS).
as §2

Data set [11] concerns the target T7, human cDNA-expressed UGT2B7 (Homo sapiens, UniProt P16662).
T7 construct: purchased Corning Life Sciences
Description: Enzyme kinetics of M1 glucuronidation to M15 in cDNA-expressed UGT2B7. Type of data set: in vitro ADME. Conditions: formation of M15 from M1, UGT2B7. Here is the method:
as §3, §2

The test system of the next data set is human liver microsomes. In words: JP-1366 metabolism in human liver microsomes with NADPH, with or without SKF-525A. Type of data set: in vitro ADME.
Data set [12] has as its system human liver microsomes (HLM). Description: Enzyme kinetics of M1 glucuronidation to M15 in human liver microsomes. It counts as in vitro ADME. Conditions: formation of M15 from M1, HLM. Here is the method: as §3, §2
The test system of another data set is esterase. Conditions: 5 μM JP-1366, human liver microsomes. Here is the method: The experimental protocols were performed in accordance with FDA guidelines and the previous reports with slight modifications. […] The reactions were stopped by adding 100 μL of lansoprazole (IS) in ice-cold acetonitrile (100 ng/mL).
A short description of data set [13]: Apparent permeability in Caco-2 cells. It counts as in vitro ADME. Conditions: human. As to the method: Caco-2 cells (passage no. 41–42) were grown in tissue culture flasks containing Dulbecco’s Modified Eagle Medium supplemented with 20% FBS, 1% nonessential amino acids, and 1% penicillin–streptomycin. […] The culture medium was replaced every other day. On the day of the experiment, the growth medium was discarded, and the attached cells were washed with prewarmed HBSS (pH 7.4) and preincubated with HBSS for 20 min at 37 °C. […] Aliquots (30 μL) of each sample were vortex-mixed with 90 μL of IS solution for 1 min, and then centrifugation was performed at 13,500 rpm at 4 °C for 5 min. Aliquots (5 μL) of the supernatant were injected into the LC-MS/MS for analysis.

The conditions of data set [14]: cited from earlier work.
In data set [15] the test system is gastric pH. Conditions: cited from earlier work; for % time pH > 4.0 over a period of 24 h: 40 mg dose group, healthy subjects.
On the set-up of data set [16]: method as in PMID 16011666. Conditions: cited from earlier work.
For data set [17], the system named is CYP3A4. Details: method as in PMID 35745870. Conditions: cited from earlier work.
The target of the next data set is porcine H^+/K^+-ATPase. Details: method as in PMID 35745870, PMID 33355910. Conditions: reversible inhibition; cited from earlier work.
The test system of data set [18] is gastric pH. The arrangement: method as in PMID 31437865. Conditions: cited from earlier work.
Data set [19] has as its system gastric pH. The arrangement: method as in PMID 35146797. Conditions: 50 mg of tegoprazan dose; cited from earlier work.
[20] abbreviates: formation of the labelled metabolite from JP-1366, CYP2C19.
[21] abbreviates: formation of the labelled metabolite from JP-1366, CYP3A5.
[22] abbreviates: formation of the labelled metabolite from JP-1366, CYP2D6.
[23] abbreviates: formation of the labelled metabolite from JP-1366, CYP3A4.
[24] abbreviates: formation of the labelled metabolite from JP-1366, CYP2C9.

T4 sequence (P08684 whole entry): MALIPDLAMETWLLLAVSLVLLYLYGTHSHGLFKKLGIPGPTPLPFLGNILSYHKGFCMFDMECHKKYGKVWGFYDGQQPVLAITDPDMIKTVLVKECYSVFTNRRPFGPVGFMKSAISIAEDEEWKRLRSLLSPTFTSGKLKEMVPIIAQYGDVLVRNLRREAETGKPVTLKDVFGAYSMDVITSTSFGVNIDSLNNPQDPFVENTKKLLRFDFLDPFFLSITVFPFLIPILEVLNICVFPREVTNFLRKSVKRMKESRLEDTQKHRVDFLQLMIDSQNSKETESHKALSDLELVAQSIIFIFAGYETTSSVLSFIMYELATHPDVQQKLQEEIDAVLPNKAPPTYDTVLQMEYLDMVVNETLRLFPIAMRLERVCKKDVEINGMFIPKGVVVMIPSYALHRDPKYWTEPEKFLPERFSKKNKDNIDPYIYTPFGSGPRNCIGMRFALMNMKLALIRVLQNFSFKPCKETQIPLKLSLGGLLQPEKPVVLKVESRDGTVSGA
T5 sequence (P11712 whole entry): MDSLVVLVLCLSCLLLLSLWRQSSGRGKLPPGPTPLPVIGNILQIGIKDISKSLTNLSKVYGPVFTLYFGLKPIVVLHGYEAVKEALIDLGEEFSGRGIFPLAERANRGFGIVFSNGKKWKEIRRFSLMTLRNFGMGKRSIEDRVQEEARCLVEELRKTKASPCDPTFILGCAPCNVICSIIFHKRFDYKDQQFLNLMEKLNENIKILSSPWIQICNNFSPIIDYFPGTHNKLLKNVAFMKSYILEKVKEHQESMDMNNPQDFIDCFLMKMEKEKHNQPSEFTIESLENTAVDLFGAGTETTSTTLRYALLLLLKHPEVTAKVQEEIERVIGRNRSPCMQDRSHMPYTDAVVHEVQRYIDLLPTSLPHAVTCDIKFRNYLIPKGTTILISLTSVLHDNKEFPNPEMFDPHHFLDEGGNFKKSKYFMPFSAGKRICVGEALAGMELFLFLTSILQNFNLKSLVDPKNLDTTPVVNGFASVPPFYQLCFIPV
T6 sequence (O75795 24-530): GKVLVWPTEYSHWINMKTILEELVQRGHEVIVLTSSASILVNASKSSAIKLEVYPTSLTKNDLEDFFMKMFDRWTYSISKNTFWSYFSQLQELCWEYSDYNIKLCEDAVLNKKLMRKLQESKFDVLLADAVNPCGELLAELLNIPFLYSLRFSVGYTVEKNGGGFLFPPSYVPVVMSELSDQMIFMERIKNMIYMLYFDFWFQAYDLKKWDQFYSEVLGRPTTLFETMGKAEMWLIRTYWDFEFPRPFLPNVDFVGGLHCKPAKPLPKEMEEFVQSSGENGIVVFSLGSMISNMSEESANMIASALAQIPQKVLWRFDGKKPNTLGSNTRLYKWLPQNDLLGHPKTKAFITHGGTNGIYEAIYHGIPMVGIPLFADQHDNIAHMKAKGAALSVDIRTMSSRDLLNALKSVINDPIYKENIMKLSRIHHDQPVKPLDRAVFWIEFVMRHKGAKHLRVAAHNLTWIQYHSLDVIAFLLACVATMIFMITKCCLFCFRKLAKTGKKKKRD
T7 sequence (P16662 24-529): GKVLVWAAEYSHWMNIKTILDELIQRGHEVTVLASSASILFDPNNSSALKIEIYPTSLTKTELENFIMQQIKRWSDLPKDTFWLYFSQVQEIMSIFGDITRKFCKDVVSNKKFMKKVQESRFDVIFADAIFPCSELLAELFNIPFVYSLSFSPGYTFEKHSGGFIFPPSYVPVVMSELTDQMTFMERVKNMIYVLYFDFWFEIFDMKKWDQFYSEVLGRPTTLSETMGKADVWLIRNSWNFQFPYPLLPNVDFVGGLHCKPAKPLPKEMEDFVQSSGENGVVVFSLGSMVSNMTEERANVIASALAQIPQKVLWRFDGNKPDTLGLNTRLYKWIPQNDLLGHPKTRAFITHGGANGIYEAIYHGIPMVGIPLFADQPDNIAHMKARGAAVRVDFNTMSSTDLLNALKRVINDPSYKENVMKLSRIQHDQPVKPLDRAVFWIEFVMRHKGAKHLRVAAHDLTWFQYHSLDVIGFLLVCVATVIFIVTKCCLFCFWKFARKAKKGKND

Consider `CNCc1cn(S(=O)(=O)c2cccc(F)c2)c(-c2ccc(F)cc2F)c1OC` [Fexuprazan], for which the tolerability result in [1] is on record as “well tolerated”. Moreover, in the data set with CYP3A4 [2], the “contribution of CYP3A4 to formation of M11 (hydroxylation)” value is on record as above 60% and the “contribution of CYP3A4 to formation of M14 (oxidative deamination)” value is on record as “more than 80%”. Also, the “erosive esophagitis healing versus esomeprazole 40 mg” value with erosive esophagitis is on record as “non-inferior”.
Turning to `Cc1nc2c(N)cc(C(=O)N3CCC3)cn2c1C` [M6, (8-amino-2,3-dimethylimidazo[1,2-a]pyridin-6-yl)(azetidin-1-yl)methanone], the CLint was 0.0023 μL/min/pmol CYP in [3] (setting [20]); 0.41 μL/min/pmol CYP in [4] (setting [21]); 0.0015 μL/min/pmol CYP in data set [5] (setting [22]); 0.77 μL/min/pmol CYP in [6] (setting [23]); 0.0070 μL/min/pmol CYP in data set [7] (setting [24]). For the same compound, the “n (Hill coefficient)” value in data set [3] (setting [20]) was determined as 0.6; in data set [4] (setting [21]) it was 1.5; in data set [5] (setting [22]), 0.7; in data set [6] (setting [23]) it was 1.8; in data set [7] (setting [24]), 0.7. Besides, the “Contribution (%)” value in data set [3] (relative contribution of CYP2C19 to formation of the labelled metabolite) was 0.1%; in data set [4] (relative contribution of CYP3A5 to formation of the labelled metabolite) it was 68.9%; in [5] (relative contribution of CYP2D6 to formation of the labelled metabolite) it was 0.1%; in data set [6] (relative contribution of CYP3A4 to formation of the labelled metabolite) it was 28.1%; in [7] (relative contribution of CYP2C9 to formation of the labelled metabolite) it was 2.8%. Besides, the “contribution of CYP3A4/5 to formation of the metabolite from JP-1366” value with CYP3A4/5 was determined as 97.0%. For the same compound, the “Hepatocytes (species in which the metabolite was found)” value (from here on “Hepatocytes”) in data set [8] is “H, D, Mk, M, R”. Also, the Vmax in [9] is listed as 798.8 pmol/min/mg protein. In data set [9] (substrate inhibition kinetics, formation of the labelled metabolite, HLM), the Ki was determined as 105 µM.
Regarding `Cc1cccc(COC2OC(C(=O)O)C(O)C(O)C2O)c1CNc1cc(C(=O)N2CCC2)cn2c(C)c(C)nc12` (centres unmarked) [M15], the CLint in [10] is 1.27 μL/min/mg Protein. The compound further showed a Ki in [10] (substrate inhibition) of 59 µM. Also, in data set [11], the CLint came to 0.60 μL/min/mg Protein and the “n (Hill coefficient)” value amounted to 0.8. Moreover, the “Hepatocytes” value in data set [8] is recorded as “H, D, Mk, M, R”. Further, the “detection of metabolite after incubation of JP-1366 in human liver microsomes with NADPH” value in the data set with human liver microsomes (5 μM JP-1366) is listed as “not detected”. Besides, in data set [12], the CLint stood at 1.29 μL/min/mg Protein, the Vmax amounted to 74.9 pmol/min/mg Protein and the “n (Hill coefficient)” value is given as 1.0.
Turning to `Cc1cccc(C)c1CNc1cc(C(=O)O)cn2c(C)c(C)nc12` [M23, 8-((2,6-dimethylbenzyl)amino)-2,3-dimethylimidazo[1,2-a]pyridine-6-carboxylic acid], in [8], the “Hepatocytes” value is “H, D, M, R”. In addition, in data set [9], the Vmax worked out at 23.2 pmol/min/mg protein.
Consider `[F-].[Na+]` [NaF], for which the results for the “inhibition of formation of M23 from JP-1366” value in the data set on esterase (100 μM NaF) and in the data set on esterase (1000 μM NaF) were 18.9% ± 3.9% and 73.3% ± 0.3%, respectively.
The term Papp A→B denotes the apparent permeability from the apical to the basolateral side of a cell layer. As usually defined, the Papp B→A is the apparent permeability from the basolateral to the apical side of a cell layer. Regarding `CC(C)NCC(O)COc1cccc2ccccc12` (centres unmarked) [Propranolol, reference compound], in data set [13] (Caco-2, pH 7.4), the apparent permeability from apical to basolateral (Papp A→B) at 1 h, 4 µM was 97.5 ± 6.8 nm/s and the Papp B→A at 1 h, 4 µM stood at 122 ± 15.1 nm/s. For the same compound, the efflux ratio at 1 h, 4 µM in [13] (pH 7.4, Caco-2, mean Papp,BA / mean Papp,AB, read-out: ER) was found to be 1.3.
On to `CCCC(C(=O)OCCN(CC)CC)(c1ccccc1)c1ccccc1` [SKF-525A, reference compound], for which, in the data set with human liver microsomes (SKF-525A 10 μM and 100 μM, human liver microsomes), the “effect on formation of M23 from JP-1366” value is “not inhibited”.
What is called pKa is the negative logarithm of the acid dissociation constant. As for `CNCc1cc(-c2ccccc2F)n(S(=O)(=O)c2cccnc2)c1` [Vonoprazan], the pKa in [14] is recorded as 9.37.
Consider `COc1ccc2nc([S@@+]([O-])Cc3ncc(C)c(OC)c3C)[nH]c2c1` [esomeprazole, reference compound], for which the “% time pH > 4.0 over a period of 24 h” value in the data set on gastric pH [15] (MAD) was 56.56% ± 22.47%; in the data set with gastric pH [15] (SAD) it was 72.06% ± 13.43%. In addition, the “% time pH > 4 at nighttime” value in the data set on gastric pH [15] (repeated 40 mg dose) is reported as 56.56% ± 22.47%.
Turning to `COc1ccc2[nH]c([S+]([O-])Cc3ncc(C)c(OC)c3C)nc2c1` (centres unmarked) [omeprazole], the “plasma exposure in poor metabolizers with a CYP2C19 mutation” value in data set [16] is listed as “five-fold higher”.
As usually defined, the IC50 is the concentration that inhibits the measured activity by half. A word on the Cmax: it is the maximum level reached in the sampled fluid or tissue. In the case of `Cc1nc2cc(C(=O)N(C)C)cc(O[C@H]3CCOc4cc(F)cc(F)c43)c2[nH]1` [tegoprazan], the “contribution of CYP3A4 to metabolism to active metabolite M1” value with CYP3A4 [17] is given as “about 75%”. Further, the IC50 on porcine H^+/K^+-ATPase is 0.53 µM. For the same compound, the Cmax is 1.413 ± 0.0247 µg/mL in the data set with gastric pH [18] (100 mg once daily, day 1) and 0.8452 ± 0.0407 µg/mL in the data set with gastric pH [18] (100 mg once daily, day 7). The “decrease of Cmax after repeated administration compared with a single dose” value in the data set on gastric pH [18] (100 mg once daily) is 40%. Further, the “% time pH > 4 over a 24 h period” value is reported as 70.4% in the data set on gastric pH [18] (repeated oral dose of 100 mg); 48.9% with gastric pH [18] (single oral dose of 50 mg, six healthy subjects); 66.0 ± 15.7% in the data set on gastric pH [19].
